Experimental data as given in patent publication US6300350A, “Treatment of emphysema using RARy selective retinoid agonists” (priority 2000, dated 2001).

Assays:
[1] = system: RXR receptors; conditions: cited from earlier work
[2] = system: elastase-induced emphysema; test: Alveolar repair in rat model of elastase-induced emphysema, intraperitoneal; assay type: in vivo, male Sprague Dawley rats; set-up: Alveolar Area: unit not given here; conditions: for % Repair / Alveolar Area: 0.5 mg/kg ip once daily, from 21 days post injury, 14 days; for Alveolar Area: naive 1637 +/- 153, elastase + vehicle 3570 +/- 319; for alveolar repair (in words): elastase-treated rats, 0.5 mg/kg ip; for light micrographs of lung sections (in words): rat lung damaged by elastase and then treated, compared to normal rat lung
Procedure: Animals were divided into treatment groups of approximately eight. […] Three weeks post injury ATRA or a RAR selective agonist was dissolved in DMSO (20 mg/ml) and stored at -20 C. Fresh working stocks were prepared fresh daily by dilution in corn oil to a final concentration of 2 mg/ml. […] Control groups were challenged with elastase and 21 days later treated with Vehicle (DMSO/PBS) for 14 days. Animals were sacrificed 24 hours after the last dose of by exsanguination under deep anesthesia. Blood was collected at time of exanguination for analysis of changes in blood chemistry from respective treatments. The lungs were inflated with 10% neutral buffered formalin by intratracheal instillation at a constant rate (1 ml/gram body mass/min). The lung was excised and immersed in fixative for 24 hours prior to processing. Standard methods were used to prepare 5 um paraffin sections. Sections were stained with Hematoxylin and Eosin (H%E). Computerized Morphometric analysis was performed to determine the average alveolar size and alveolar number.

[3] = biological target: T1, RARα (Homo sapiens, UniProt P10276); test: Transactivation, RARα; assay type: cell-based
T1 sequence (P10276 1-462): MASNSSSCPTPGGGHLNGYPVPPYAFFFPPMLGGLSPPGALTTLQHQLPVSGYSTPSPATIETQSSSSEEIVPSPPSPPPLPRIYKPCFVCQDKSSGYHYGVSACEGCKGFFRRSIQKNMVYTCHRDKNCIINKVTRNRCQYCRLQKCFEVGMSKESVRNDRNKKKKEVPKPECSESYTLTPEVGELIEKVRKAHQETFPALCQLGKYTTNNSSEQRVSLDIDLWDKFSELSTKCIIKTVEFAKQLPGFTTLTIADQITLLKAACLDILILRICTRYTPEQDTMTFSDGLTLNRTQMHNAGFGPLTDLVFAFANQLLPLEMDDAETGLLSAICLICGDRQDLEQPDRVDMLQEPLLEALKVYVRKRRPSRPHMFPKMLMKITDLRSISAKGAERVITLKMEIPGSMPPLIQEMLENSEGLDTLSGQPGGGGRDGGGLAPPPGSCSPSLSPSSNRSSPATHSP
Source text: (§1) As used herein, the term "transactivation" refers to the ability of a retinoid to activate the transcription of a gene where the gene transcription is initiated by the binding of a ligand to the particular retinoic acid receptor being tested, i.e., RARα, RARβ, or RARγ. Determining the ability of a compound to transactivate a retinoic acid receptor may be performed by methods known to those of skill in the art. […] Apfel etal., Proc. Nat.

[4] = biological target: T2, RARβ (Homo sapiens, UniProt P10826); test: Transactivation, RARβ; assay type: cell-based
T2 sequence (P10826 1-455): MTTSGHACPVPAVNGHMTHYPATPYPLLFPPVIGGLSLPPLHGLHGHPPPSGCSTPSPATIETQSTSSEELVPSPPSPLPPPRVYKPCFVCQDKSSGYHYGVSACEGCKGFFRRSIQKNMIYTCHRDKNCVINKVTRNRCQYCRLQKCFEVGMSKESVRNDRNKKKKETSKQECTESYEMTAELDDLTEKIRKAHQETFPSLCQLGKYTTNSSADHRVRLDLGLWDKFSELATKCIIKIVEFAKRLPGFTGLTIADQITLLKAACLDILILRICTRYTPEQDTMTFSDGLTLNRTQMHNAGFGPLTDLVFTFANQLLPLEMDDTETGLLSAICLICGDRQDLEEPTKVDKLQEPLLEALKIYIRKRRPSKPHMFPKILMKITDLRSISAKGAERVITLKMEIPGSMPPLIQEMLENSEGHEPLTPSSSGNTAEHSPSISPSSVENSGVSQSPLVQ
Source text: as §1

[5] = system: tropoelastin gene; test: RAR transactivation of steady state tropoelastin gene in normal human lung fibroblasts (CCD-16Lu); assay type: cell-based; conditions: for Tropo-elastin Expression: CCD-16Lu, 1×10^-7 M, RT-PCR, triplicate, untreated control 30.90; for tropoelastin gene induction (in words): human lung fibroblasts, compared to the control
Procedure: Transactivation of the tropoelastin gene in normal human lung fibroblasts (CCD-16Lu) was performed as described below. Cells were grown to confluence at which time fresh media +/- ATRA or selective retiniod was added to the basal culture. ATRA and/or selective retiniods were used at a concentration of 1×10^-7 M. The cell layer was lysed using a guanidinium-based buffer (TRIZOL/Sigma) for RNA extraction and analysis. Amplification of tropoelastin and GAPDH RNA was performed by standard quantitative RT-PCR (TAQMAN, Perken/Elmer) using appropriate selective primers. Tropo-elastin gene expression was normalized to the expression of standard house-keeping gene (GAPDH).
Samples were run in triplicate.

[6] = biological target: T2, RARβ; test: Binding, RARβ (ligand binding assay)
Source text: (§2) The RARγ agonist selectivity of a compound can be determined by routine ligand binding assays known to one of skill in the art such as described in C. Apfel et al., Proc. Nat.

[7] = biological target: T3, RARγ (Homo sapiens, UniProt P13631); test: Binding, RARγ (ligand binding assay)
T3 sequence (P13631 1-454): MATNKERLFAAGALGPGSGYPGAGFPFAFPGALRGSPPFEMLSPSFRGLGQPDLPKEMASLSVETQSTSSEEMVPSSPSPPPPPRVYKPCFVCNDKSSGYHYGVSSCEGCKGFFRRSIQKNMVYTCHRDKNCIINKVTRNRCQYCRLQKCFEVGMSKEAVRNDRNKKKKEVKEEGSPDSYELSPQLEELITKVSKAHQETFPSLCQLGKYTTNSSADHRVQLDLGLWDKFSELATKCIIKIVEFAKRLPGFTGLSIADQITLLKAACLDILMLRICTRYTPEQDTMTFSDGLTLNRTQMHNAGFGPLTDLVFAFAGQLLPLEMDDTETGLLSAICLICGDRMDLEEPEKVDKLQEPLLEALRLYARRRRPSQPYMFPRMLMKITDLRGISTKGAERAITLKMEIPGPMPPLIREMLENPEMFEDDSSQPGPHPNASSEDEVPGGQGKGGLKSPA
Source text: as §2

[8] = biological target: T1, RARα; test: Binding, RARα (ligand binding assay)
Source text: as §2

[9] = biological target: T3, RARγ; test: Transactivation, RARγ; assay type: cell-based
Source text: as §1

[10] = Plasma triglyceride levels in rats; assay type: in vivo
Procedure: Experimental emphysema was induced in rats as described in Example 2. Three (3) weeks post injury animals were treated with vehicle (Capmul solution) or retinoids prepared in Capmul and dosed orally at 1, 3, and 10 mg/kg body weight. Animals were treated for 14 days prior to termination of study. Lung harvest and blood collection was performed as described in Example 2.
Quantitation of triglycerides contained in rat plasma was performed after using established procedures in a contact clinical laboratory facility. Briefly, plasma triglycerides were converted to dihdroxyacetone and H2 O2, by sequential treatment of plasma with lipase and glycerokinase according directions described by manufacturer of triglycerides/GPO kit (Boehringer Mannheim #1488872). H2 02 was quantitated calorimetrically in a Hitachi 911 Chemistry Analyzer. In rats normal triglyceride levels are 75-175 mg/dl.
Dosage was at 1 mg/kg/PO daily for two weeks. […] Therefore, it appears that RARα selective activity is linked to elevated triglyceride levels.

[11] = system: experimental emphysema; test: Alveolar repair in rat experimental emphysema, oral dosing; assay type: in vivo, rats; conditions: 1 mg/kg/PO daily for two weeks
Procedure: Three (3) weeks post injury animals were treated with vehicle (Capmul solution) or retinoids prepared in Capmul and dosed orally at 1, 3, and 10 mg/kg body weight. Animals were treated for 14 days prior to termination of study.
Dosage was at 1 mg/kg/PO daily for two weeks.

[12] = system: alveolar septation; conditions: postnatal administration; newborn rats; cited from earlier work
[13] = plasma, 1 mg/kg/PO daily for two weeks
[14] = plasma, 1 mg/kg/PO daily for two weeks, normal rat 75-175 mg/dl

In the case of CC1=C(/C=C/C(C)=C\C=C\C(C)=C\C(=O)O)C(C)(C)CCC1 [9-cis retinoic acid], the “binding to RXR receptors (in words)” value [1] is given as “is the natural ligand”.
In the case of O=C(O)c1ccc(NC(=O)c2cc(C(F)(F)F)cc(C(F)(F)F)c2)cc1 [RAR Agonist 1, reference compound], the “% Repair” value [2] is reported as under 20%, the “Alveolar Area” value [2] is reported as 3058 +/- 160 and the “alveolar repair (in words)” value [2] is reported as “do not induce alveolar repair”. The “light micrographs of lung sections (in words)” value [2] was “did not reverse the change caused by elastase treatment”, the EC50 ([3]; Table II) was 16.5 nM and the EC50 ([4]; Table II) was 10000 nM. For the same molecule, the “Tropo-elastin Expression” value [5] was 13.93 (Elastin/GAPDH) × 10^5, the “tropoelastin gene induction (in words)” value [5] was “did not induce the tropoelastin gene” and the IC50 ([6]; Table II) was 10000 nM. For the same molecule, the IC50 ([7]; Table II) was 10000 nM, the IC50 ([7]; Table III) was 10000 nM and the IC50 ([8]; Table II) was 300 nM. The EC50 ([9]; Table II) was 10000 nM and the EC50 ([9]; Table III) was 10000 nM.
With CC(C)COc1ccc(-c2ccc3cc(C(=O)O)ccc3c2)cc1C(C)(C)C [RAR Agonist 2, reference compound] the “% Repair” value [2] was under 20%, the “Alveolar Area” value [2] was 3653 +/- 550 and the “alveolar repair (in words)” value [2] was “do not induce alveolar repair”. The “light micrographs of lung sections (in words)” value [2] was “did not reverse the change caused by elastase treatment”, the EC50 ([3]; Table II) was 2000 nM and the EC50 ([4]; Table II) was 39 nM. The “Tropo-elastin Expression” value [5] was 1.85 (Elastin/GAPDH) × 10^5, the “tropoelastin gene induction (in words)” value [5] was “did not induce the tropoelastin gene” and the IC50 ([6]; Table II) was 28 nM. The IC50 ([7]; Table II) was 300 nM, the IC50 ([7]; Table III) was 300 nM and the IC50 ([8]; Table II) was 1000 nM. For the same molecule, the EC50 ([9]; Table II) was 160 nM and the EC50 ([9]; Table III) was 160 nM.
With CCCCCC(=O)c1cc2c(cc1/C=C/c1ccc(C(=O)O)cc1)C(C)(C)CCC2(C)C [RAR Agonist 5] the “triglyceride levels (in words)” value [10, 13] was “do not cause elevation in the triglyceride levels”, the “[Triglyceride]” value [10, 14] was 119 mg/dL and the “% Repair” value [2] was 56%. The “Alveolar Area” value [2] was 2502 +/- 243, the “alveolar repair (in words)” value [2] was “markedly induce alveolar repair” and the EC50 ([3]; Table III) was 10000 nM. The “% Repair” value [11] was 40%, the EC50 ([4]; Table III) was 10000 nM and the IC50 ([6]; Table III) was 5400 nM. The IC50 ([7]; Table III) was 770 nM, the IC50 ([8]; Table III) was 2300 nM and the EC50 ([9]; Table III) was 104 nM.
In the case of CC1(C)CCOc2ccc(C(=O)/C=C/c3ccc(C(=O)O)cc3)cc21 [RAR Agonist 6], the “triglyceride levels (in words)” value [10, 13] is reported as “do not cause elevation in the triglyceride levels”, the “[Triglyceride]” value [10, 14] is reported as 140 mg/dL and the “% Repair” value [2] is reported as over 70%. For the same molecule, the “Alveolar Area” value [2] was 1909 +/- 207, the “alveolar repair (in words)” value [2] was “markedly induce alveolar repair” and the EC50 ([3]; Table III) was 10000 nM. The “% Repair” value [11] was 39%, the EC50 ([4]; Table III) was 16 nM and the IC50 ([6]; Table III) was 2100 nM. The IC50 ([7]; Table III) was 2410 nM, the IC50 ([8]; Table III) was 3100 nM and the EC50 ([9]; Table III) was 15 nM.
With O=C(O)c1ccc2cc(-c3ccc(O)c(C45CC6CC(CC(C6)C4)C5)c3)ccc2c1 [RAR Agonist 7] the “[Triglyceride]” value ([10]; rat, in vivo, po, 1 mg/kg) was 114 mg/dL, the “triglyceride levels (in words)” value ([10]; rat, in vivo, po, 1 mg/kg) was “do not cause elevation in the triglyceride levels” and the “% Repair” value [2] was over 70%. For the same molecule, the “Alveolar Area” value [2] was 1817 +/- 241, the “alveolar repair (in words)” value [2] was “markedly induce alveolar repair” and the “% Repair” value [11] was 66%. The EC50 ([4]; Table III) was 2300 nM and the IC50 ([6]; Table III) was 4600 nM.
For CC1=C(/C=C/C(C)=C/C=C/C(C)=C\C(=O)O)C(C)(C)CCC1 [RAR Agonist 8, reference compound], the “triglyceride levels (in words)” value [10, 13] was “either on the high end of normal or elevated”, the “[Triglyceride]” value [10, 14] was 178 mg/dL and the “% Repair” value [11] was 57.1%.
With CC1(C)CCC(C)(C)c2cc(C(=O)Nc3ccc(C(=O)O)cc3)ccc21 [RAR Agonist 9] the “% Repair” value [2] was under 20%, the “Alveolar Area” value [2] was 3323 +/- 406 and the “alveolar repair (in words)” value [2] was “do not induce alveolar repair”.
In the case of CC1=C(/C=C/C(C)=C\C=C\C(C)=C\C(=O)O)C(C)(C)CCC1 [RAR Agonist 10, reference compound], the “triglyceride levels (in words)” value [10, 13] is reported as “either on the high end of normal or elevated”, the “[Triglyceride]” value [10, 14] is reported as 273 mg/dL and the “% Repair” value [11] is reported as 58.3%.
In the case of C[C@@H]1C[C@H]2[C@@H]3CCC4=CC(=O)C=C[C@]4(C)[C@@]3(F)[C@@H](O)C[C@]2(C)[C@@]1(O)C(=O)CO [dexamethasone], the “number of alveoli / septation in lungs (in words)” value [12] is listed as “inhibits the process of septation in the lungs”.
In the case of CC1=C(/C=C/C(C)=C/C=C/C(C)=C/C(=O)O)C(C)(C)CCC1 [retinoic acid], the “number of alveoli / septation in lungs (in words)” value [12] is listed as “increases the number of alveoli in rats”.
